Numbers after ± are expanded uncertainties.
Assay: mn = molality of the nth substance listed, in mol/kg
Conditions: 101 kPa, Liquid; for speed of sound: Linear variable-path acoustic interferometer; for mass density: Pycnometric method

N=C(N)NCCC[C@H](N)C(=O)O [L-arginine] + O
Conditions	mass density [kg/m3]	speed of sound [m/s]
275.15 K, m1 = 0.0381	1002.25 ± 0.48	1416.9 ± 2.8
275.15 K, m1 = 0.0808	1004.4 ± 0.48	1422.5 ± 2.8
275.15 K, m1 = 0.1223	1006.6 ± 0.48	1427.9 ± 2.7
275.15 K, m1 = 0.1659	1008.86 ± 0.48	1433.5 ± 2.7
275.15 K, m1 = 0.2092	1010.74 ± 0.48	1439.2 ± 2.7
275.15 K, m1 = 0.2503	1012.81 ± 0.48	1444.5 ± 2.7
275.15 K, m1 = 0.2909	1014.82 ± 0.48	1449.8 ± 2.7
275.15 K, m1 = 0.3371	1017.05 ± 0.48	1455.8 ± 2.7
275.15 K, m1 = 0.3742	1018.75 ± 0.49	1460.6 ± 2.7
275.15 K, m1 = 0.4153	1020.74 ± 0.49	1465.9 ± 2.7
275.15 K, m1 = 0.4529	1022.49 ± 0.49	1470.8 ± 2.7
275.15 K, m1 = 0.5067	1024.97 ± 0.49	1477.8 ± 2.7
279.15 K, m1 = 0.0381	1002.12 ± 0.47	1434.5 ± 2.8
279.15 K, m1 = 0.0808	1004.33 ± 0.47	1439.6 ± 2.8
279.15 K, m1 = 0.1225	1005.88 ± 0.47	1444.5 ± 2.8
279.15 K, m1 = 0.1847	1009.11 ± 0.47	1451.9 ± 2.8
279.15 K, m1 = 0.2092	1010.49 ± 0.47	1454.8 ± 2.7
279.15 K, m1 = 0.25	1012.51 ± 0.47	1459.7 ± 2.7
279.15 K, m1 = 0.2932	1014.5 ± 0.48	1464.8 ± 2.7
279.15 K, m1 = 0.3459	1017.1 ± 0.48	1471.1 ± 2.7
279.15 K, m1 = 0.3742	1018.39 ± 0.48	1474.4 ± 2.7
279.15 K, m1 = 0.4177	1020.39 ± 0.48	1479.6 ± 2.7
279.15 K, m1 = 0.4601	1022.35 ± 0.48	1484.6 ± 2.7
279.15 K, m1 = 0.5176	1025.01 ± 0.48	1491.4 ± 2.7
283.15 K, m1 = 0.0379	1001.53 ± 0.46	1451.4 ± 2.8
283.15 K, m1 = 0.0806	1003.83 ± 0.46	1456.3 ± 2.8
283.15 K, m1 = 0.1228	1005.96 ± 0.46	1461.2 ± 2.8
283.15 K, m1 = 0.1755	1008.59 ± 0.46	1467.2 ± 2.8
283.15 K, m1 = 0.2052	1009.81 ± 0.47	1470.7 ± 2.8
283.15 K, m1 = 0.2496	1012.14 ± 0.47	1475.8 ± 2.8
283.15 K, m1 = 0.291	1014.12 ± 0.47	1480.5 ± 2.8
283.15 K, m1 = 0.3386	1016.31 ± 0.47	1486 ± 2.8
283.15 K, m1 = 0.3757	1017.99 ± 0.47	1490.3 ± 2.8
283.15 K, m1 = 0.416	1019.92 ± 0.47	1495 ± 2.8
283.15 K, m1 = 0.4566	1021.75 ± 0.47	1499.6 ± 2.8
283.15 K, m1 = 0.5031	1023.84 ± 0.47	1505 ± 2.8

C[C@@H](O)[C@H](N)C(=O)O [L-threonine] + O
Conditions	mass density [kg/m3]	speed of sound [m/s]
275.15 K, m1 = 0.0337	1001.56 ± 0.48	1415.3 ± 2.8
275.15 K, m1 = 0.0672	1003.12 ± 0.48	1418.7 ± 2.8
275.15 K, m1 = 0.1009	1004.6 ± 0.48	1422 ± 2.8
275.15 K, m1 = 0.1338	1006.09 ± 0.48	1425.3 ± 2.8
275.15 K, m1 = 0.1674	1007.23 ± 0.48	1428.6 ± 2.8
275.15 K, m1 = 0.2002	1008.62 ± 0.48	1431.8 ± 2.7
275.15 K, m1 = 0.2334	1010.1 ± 0.48	1435.1 ± 2.7
275.15 K, m1 = 0.2689	1011.67 ± 0.48	1438.6 ± 2.7
275.15 K, m1 = 0.3009	1012.89 ± 0.48	1441.8 ± 2.7
275.15 K, m1 = 0.3345	1014.39 ± 0.48	1445.1 ± 2.7
275.15 K, m1 = 0.3679	1015.8 ± 0.48	1448.4 ± 2.7
275.15 K, m1 = 0.4054	1017.24 ± 0.48	1452.2 ± 2.7
279.15 K, m1 = 0.0337	1001.55 ± 0.47	1433.1 ± 2.8
279.15 K, m1 = 0.0671	1002.96 ± 0.47	1436.2 ± 2.8
279.15 K, m1 = 0.101	1004.52 ± 0.47	1439.3 ± 2.8
279.15 K, m1 = 0.1342	1005.69 ± 0.47	1442.3 ± 2.8
279.15 K, m1 = 0.1665	1006.97 ± 0.47	1445.3 ± 2.8
279.15 K, m1 = 0.2002	1008.49 ± 0.47	1448.4 ± 2.8
279.15 K, m1 = 0.235	1009.98 ± 0.47	1451.6 ± 2.8
279.15 K, m1 = 0.2673	1011.46 ± 0.47	1454.5 ± 2.8
279.15 K, m1 = 0.2996	1012.62 ± 0.47	1457.5 ± 2.8
279.15 K, m1 = 0.3683	1015.5 ± 0.48	1463.8 ± 2.7
279.15 K, m1 = 0.4005	1016.91 ± 0.48	1466.8 ± 2.7
283.15 K, m1 = 0.0224	1000.69 ± 0.46	1449 ± 2.8
283.15 K, m1 = 0.0677	1002.52 ± 0.46	1453.1 ± 2.8
283.15 K, m1 = 0.101	1004.25 ± 0.46	1456.1 ± 2.8
283.15 K, m1 = 0.1362	1005.58 ± 0.46	1459.2 ± 2.8
283.15 K, m1 = 0.1665	1006.81 ± 0.46	1461.9 ± 2.8
283.15 K, m1 = 0.2005	1008.32 ± 0.46	1465 ± 2.8
283.15 K, m1 = 0.2345	1009.56 ± 0.46	1468.1 ± 2.8
283.15 K, m1 = 0.2725	1011.21 ± 0.47	1471.5 ± 2.8
283.15 K, m1 = 0.2996	1012.33 ± 0.47	1473.9 ± 2.8
283.15 K, m1 = 0.3351	1013.76 ± 0.47	1477.1 ± 2.8
283.15 K, m1 = 0.3677	1015.01 ± 0.47	1480 ± 2.8
283.15 K, m1 = 0.3928	1016.16 ± 0.47	1482.3 ± 2.8

CC(C)[C@H](N)C(=O)O [L-valine] + O
Conditions	mass density [kg/m3]	speed of sound [m/s]
275.15 K, m1 = 0.034	1000.99 ± 0.48	1416.5 ± 2.8
275.15 K, m1 = 0.0672	1001.86 ± 0.48	1420.9 ± 2.8
275.15 K, m1 = 0.1028	1002.93 ± 0.48	1425.7 ± 2.7
275.15 K, m1 = 0.1349	1003.79 ± 0.48	1429.9 ± 2.7
275.15 K, m1 = 0.1675	1004.61 ± 0.48	1434.3 ± 2.7
275.15 K, m1 = 0.2021	1005.54 ± 0.48	1438.9 ± 2.7
275.15 K, m1 = 0.233	1006.4 ± 0.48	1443 ± 2.7
275.15 K, m1 = 0.2667	1007.34 ± 0.48	1447.5 ± 2.7
275.15 K, m1 = 0.3009	1008.25 ± 0.48	1452 ± 2.7
275.15 K, m1 = 0.3669	1009.99 ± 0.48	1460.8 ± 2.7
275.15 K, m1 = 0.4066	1011.08 ± 0.48	1466.1 ± 2.7
279.15 K, m1 = 0.0341	1000.9 ± 0.47	1434.1 ± 2.8
279.15 K, m1 = 0.0671	1001.87 ± 0.47	1438.1 ± 2.8
279.15 K, m1 = 0.1009	1002.75 ± 0.47	1442.1 ± 2.7
279.15 K, m1 = 0.1418	1003.8 ± 0.47	1447 ± 2.7
279.15 K, m1 = 0.1696	1004.51 ± 0.47	1450.4 ± 2.7
279.15 K, m1 = 0.2021	1005.51 ± 0.47	1454.3 ± 2.7
279.15 K, m1 = 0.2382	1006.36 ± 0.47	1458.6 ± 2.7
279.15 K, m1 = 0.2782	1007.44 ± 0.47	1463.4 ± 2.7
279.15 K, m1 = 0.2983	1007.95 ± 0.47	1465.8 ± 2.7
279.15 K, m1 = 0.3342	1008.96 ± 0.47	1470.2 ± 2.7
279.15 K, m1 = 0.3652	1009.77 ± 0.47	1473.9 ± 2.7
279.15 K, m1 = 0.3951	1010.57 ± 0.47	1477.5 ± 2.7
283.15 K, m1 = 0.0341	1000.61 ± 0.46	1450.7 ± 2.8
283.15 K, m1 = 0.0669	1001.41 ± 0.46	1454.2 ± 2.8
283.15 K, m1 = 0.1015	1002.33 ± 0.46	1458 ± 2.7
283.15 K, m1 = 0.1349	1003.08 ± 0.46	1461.6 ± 2.7
283.15 K, m1 = 0.1666	1004.17 ± 0.46	1465 ± 2.7
283.15 K, m1 = 0.2025	1005.15 ± 0.46	1468.9 ± 2.7
283.15 K, m1 = 0.2321	1006.04 ± 0.46	1472.1 ± 2.7
283.15 K, m1 = 0.2787	1007.06 ± 0.46	1477.1 ± 2.7
283.15 K, m1 = 0.297	1007.53 ± 0.46	1479.1 ± 2.7
283.15 K, m1 = 0.3314	1008.49 ± 0.46	1482.8 ± 2.7
283.15 K, m1 = 0.3663	1009.41 ± 0.46	1486.6 ± 2.7
283.15 K, m1 = 0.3972	1010.11 ± 0.47	1489.9 ± 2.7

— the NIST ThermoML archive (doi:10.1016/j.jct.2012.12.010)
